Values of other authors in patent US9708333B2, “Fused bicyclic 1,2,4-triazine compounds as TAM inhibitors” (Incyte Corporation, priority 2015, dated 2017).

Biological target: JAK1 (Homo sapiens (Human), UniProt P23458)
Sequence (P23458 whole entry, species assumed): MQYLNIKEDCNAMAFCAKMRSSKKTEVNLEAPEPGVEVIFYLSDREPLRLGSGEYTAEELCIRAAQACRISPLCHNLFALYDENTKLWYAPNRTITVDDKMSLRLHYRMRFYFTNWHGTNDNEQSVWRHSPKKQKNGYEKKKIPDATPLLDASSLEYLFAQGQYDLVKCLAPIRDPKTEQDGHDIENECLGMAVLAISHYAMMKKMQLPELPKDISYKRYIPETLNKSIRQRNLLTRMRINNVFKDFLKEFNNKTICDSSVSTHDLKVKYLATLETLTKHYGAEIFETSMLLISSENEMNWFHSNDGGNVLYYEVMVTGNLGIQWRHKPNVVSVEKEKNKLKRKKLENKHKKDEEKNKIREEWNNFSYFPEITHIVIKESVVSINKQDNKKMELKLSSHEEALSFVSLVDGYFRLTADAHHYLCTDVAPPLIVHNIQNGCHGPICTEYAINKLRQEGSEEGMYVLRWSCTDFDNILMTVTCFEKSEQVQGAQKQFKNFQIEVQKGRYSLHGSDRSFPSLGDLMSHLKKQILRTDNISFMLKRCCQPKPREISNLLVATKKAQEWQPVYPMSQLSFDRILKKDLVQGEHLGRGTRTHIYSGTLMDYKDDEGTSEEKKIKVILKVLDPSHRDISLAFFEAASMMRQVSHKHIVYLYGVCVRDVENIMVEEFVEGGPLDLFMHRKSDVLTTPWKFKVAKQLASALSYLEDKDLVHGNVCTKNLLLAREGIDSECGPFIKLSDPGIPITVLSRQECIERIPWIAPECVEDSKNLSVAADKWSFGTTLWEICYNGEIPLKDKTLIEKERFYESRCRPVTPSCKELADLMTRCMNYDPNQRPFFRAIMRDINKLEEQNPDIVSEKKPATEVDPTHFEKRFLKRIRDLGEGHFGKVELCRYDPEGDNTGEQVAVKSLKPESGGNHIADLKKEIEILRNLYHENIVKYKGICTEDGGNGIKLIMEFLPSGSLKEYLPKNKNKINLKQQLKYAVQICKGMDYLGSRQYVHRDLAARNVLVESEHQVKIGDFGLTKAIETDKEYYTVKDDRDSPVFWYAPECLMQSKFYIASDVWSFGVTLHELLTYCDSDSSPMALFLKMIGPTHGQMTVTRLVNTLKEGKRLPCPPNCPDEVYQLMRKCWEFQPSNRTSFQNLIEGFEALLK
Settings: 1 mM ATP; cited from earlier work
In the case of “trans-7-((4-Aminocyclohexyl)methyl)-5-(4-fluorophenyl)-N-(3-phenylpropyl)imidazo [5,1-f][1,2,4]triazin-2-amine [Example 14]”, the IC50 is listed as < 10 nM.

Same assay, conditions: selectivity ratio, IC50 at 1 mM ATP; cited from earlier work
In the case of `C[C@@H](O)c1nc2cnc3ccsc3c2n1[C@H]1CC[C@H](CC#N)OC1` [Compound 1, ((2R,5S)-5-{2-[(1R)-1-hydroxyethyl]-1H-imidazo[4,5-d]thieno[3,2-b]pyridin-1-yl}tetrahydro-2H-pyran-2-yl)acetonitrile], the JAK2/JAK1 is listed as >10.
For `C[C@@H](CO)NCc1cc(OC2CCN([C@H]3C[C@](CC#N)(n4cc(-c5ncnc6[nH]ccc56)cn4)C3)CC2)nc(C(F)(F)F)c1` [Compound 23, {trans-3-(4-{[4-({[(1S)-2-hydroxy-1-methylethyl]amino}methyl)-6-(trifluoromethyl)pyridin-2-yl]oxy}piperidin-1-yl)-1-[4-(7H-pyrrolo[2,3-d]pyrimidin-4-yl)-1H-pyrazol-1-yl]cyclobutyl} acetonitrile], the JAK2/JAK1 is given as >10.
In the case of `N#CCC(CN1CCN(C(=O)c2ccc(C#N)cc2F)CC1)n1cc(-c2ncnc3[nH]ccc23)cn1` (stereo not shown) [Compound 5, 4-[(4-{3-cyano-2-[4-(7H-pyrrolo[2,3-d]pyrimidin-4-yl)-1H-pyrazol-1-yl]propyl}piperazin-1-yl)carbonyl]-3-fluorobenzonitrile], the JAK2/JAK1 is listed as >10.
In the case of `N#CCC1(n2cc(-c3ncnc4[nH]ccc34)cn2)CN(C2CCN(C(=O)c3ccnc(C(F)(F)F)n3)CC2)C1` [Compound 9, [3-[4-(7H-pyrrolo[2,3-d]pyrimidin-4-yl)-1H-pyrazol-1-yl]-1-(1-{[2-(trifluoromethyl)pyrimidin-4-yl]carbonyl}piperidin-4-yl)azetidin-3-yl]acetonitrile], the JAK2/JAK1 is listed as >10.
In the case of `N#CC[C@]1(n2cc(-c3ncnc4[nH]ccc34)cn2)C[C@H](N2CCC(Oc3cc(CCO)cc(C(F)(F)F)n3)CC2)C1` [Compound 26, {trans-3-(4-{[4-(2-hydroxyethyl)-6-(trifluoromethyl)pyridin-2-yl]oxy}piperidin-1-yl)-1-[4-(7H-pyrrolo[2,3-d]pyrimidin-4-yl)-1H-pyrazol-1-yl]cyclobutyl} acetonitrile], the JAK2/JAK1 is given as >10.
For `N#CC[C@]1(n2cc(-c3ncnc4[nH]ccc34)cn2)C[C@H](N2CCN(C(=O)c3ccnc(C(F)(F)F)n3)CC2)C1` [Compound 10, [trans-1-[4-(7H-pyrrolo[2,3-d]pyrimidin-4-yl)-1H-pyrazol-1-yl]-3-(4-{[2-(trifluoromethyl)pyrimidin-4-yl]carbonyl}piperazin-1-yl)cyclobutyl] acetonitrile], the JAK2/JAK1 is listed as >10.
For `N#CCC1(n2cc(-c3ncnc4[nH]ccc34)cn2)CN([C@H]2CC[C@@H](Oc3cc(CCO)nc(C(F)(F)F)n3)CC2)C1` [Compound 18, {1-(cis-4-{[6-(2-hydroxyethyl)-2-(trifluoromethyl)pyrimidin-4-yl]oxy}cyclohexyl)-3-[4-(7H-pyrrolo [2,3-d]pyrimidin-4-yl)-1H-pyrazol-1-yl]azetidin-3-yl}acetonitrile], the JAK2/JAK1 is given as >10.
For `C[C@H](NC(=O)c1cc(F)c(N2CC(CC#N)(n3cc(-c4ncnc5[nH]ccc45)cn3)C2)cc1F)C(F)(F)F` [Compound 16, 4-{3-(cyanomethyl)-3-[4-(7H-pyrrolo [2,3-d]pyrimidin-4-yl)-1H-pyrazol-1-yl]azetidin-1-yl}-2,5-difluoro-N-[(1S)-2,2,2-trifluoro-1-methylethyl] benzamide], the JAK2/JAK1 is given as >10.
For `N#CCC(CN1CCN(C(=O)c2ccc(C#N)cc2F)CC1)n1ccc(-c2ncnc3[nH]ccc23)c1` (stereo not shown) [Compound 6, 4-[(4-{3-cyano-2-[3-(7H-pyrrolo[2,3-d]pyrimidin-4-yl)-1H-pyrrol-1-yl]propyl}piperazin-1-yl)carbonyl]-3-fluorobenzonitrile], the JAK2/JAK1 is listed as >10.
For `N#CCC(C1CCN(c2nc3cccnc3o2)C1)n1cc(-c2ncnc3[nH]ccc23)cn1` (stereo not shown) [Compound 4, 3-(1-[1,3]oxazolo[5,4-b]pyridin-2-ylpyrrolidin-3-yl)-3-[4-(7H-pyrrolo[2,3-d]pyrimidin-4-yl)-1H-pyrazol-1-yl]propanenitrile], the JAK2/JAK1 is given as >10.
In the case of `N[C@H]1CC[C@H](Cc2nc(-c3ccc(F)cc3)c3cnc(NCCCc4ccccc4)nn23)CC1` [Example 14, trans-7-((4-Aminocyclohexyl)methyl)-5-(4-fluorophenyl)-N-(3-phenylpropyl)imidazo [5,1-f][1,2,4]triazin-2-amine], the JAK2/JAK1 is listed as >10.
In the case of `N#CCC1(n2cc(-c3ncnc4[nH]ccc34)cn2)CN(C2CCN(C(=O)Nc3ccc(F)cc3C(F)(F)F)CC2)C1` [Compound 8, 4-{3-(Cyanomethyl)-3-[4-(7H-pyrrolo[2,3-d]pyrimidin-4-yl)-1H-pyrazol-1-yl]azetidin-1-yl}-N-[4-fluoro-2-(trifluoromethyl)phenyl]piperidine-1-carboxamide], the JAK2/JAK1 is listed as >10.
In the case of `CCNCc1cc(O[C@H]2CC[C@@H](N3CC(CC#N)(n4cc(-c5ncnc6[nH]ccc56)cn4)C3)CC2)nc(C(F)(F)F)c1` [Compound 19, {1-(cis-4-{[4-[(ethylamino)methyl]-6-(trifluoromethyl)pyridin-2-yl]oxy}cyclohexyl)-3-[4-(7H-pyrrolo [2,3-d]pyrimidin-4-yl)-1H-pyrazol-1-yl]azetidin-3-yl}acetonitrile], the JAK2/JAK1 is listed as >10.
In the case of `CCCCNc1ncc2c(-c3ccc(F)cc3)nc(C[C@H]3CC[C@H](N)CC3)n2n1` [Example 13, trans-7-[(4-Aminocyclohexyl)methyl]-N-butyl-5-(4-fluorophenyl)imidazo[5,1-f][1,2,4]triazin-2-amine], the JAK2/JAK1 is given as >10.
In the case of `CC(C)(O)c1cc(O[C@H]2CC[C@@H](N3CC(CC#N)(n4cc(-c5ncnc6[nH]ccc56)cn4)C3)CC2)nc(C(F)(F)F)c1` [Compound 20, {1-(cis-4-{[4-(1-hydroxy-1-methylethyl)-6-(trifluoromethyl)pyridin-2-yl]oxy}cyclohexyl)-3-[4-(7H-pyrrolo [2,3-d]pyrimidin-4-yl)-1H-pyrazol-1-yl]azetidin-3-yl}acetonitrile], the JAK2/JAK1 is given as >10.
For `N#CCC(C1CCN(c2cccc(Cl)n2)C1)n1cc(-c2ncnc3[nH]ccc23)cn1` (stereo not shown) [Compound 3, 3-[1-(6-chloropyridin-2-yl)pyrrolidin-3-yl]-3-[4-(7H-pyrrolo[2,3-d]pyrimidin-4-yl)-1H-pyrazol-1-yl]propanenitrile], the JAK2/JAK1 is given as >10.
In the case of `C[C@H](O)CNCc1cc(OC2CCN([C@H]3C[C@](CC#N)(n4cc(-c5ncnc6[nH]ccc56)cn4)C3)CC2)nc(C(F)(F)F)c1` [Compound 25, {trans-3-(4-{[4-({[(2S)-2-hydroxypropyl]amino}methyl)-6-(trifluoromethyl)pyridin-2-yl]oxy}piperidin-1-yl)-1-[4-(7H-pyrrolo[2,3-d]pyrimidin-4-yl)-1H-pyrazol-1-yl]cyclobutyl} acetonitrile], the JAK2/JAK1 is given as >10.
For `C[C@@H](O)CNCc1cc(OC2CCN([C@H]3C[C@](CC#N)(n4cc(-c5ncnc6[nH]ccc56)cn4)C3)CC2)nc(C(F)(F)F)c1` [Compound 24, {trans-3-(4-{[4-({[(2R)-2-hydroxypropyl]amino}methyl)-6-(trifluoromethyl)pyridin-2-yl]oxy}piperidin-1-yl)-1-[4-(7H-pyrrolo[2,3-d]pyrimidin-4-yl)-1H-pyrazol-1-yl]cyclobutyl} acetonitrile], the JAK2/JAK1 is given as >10.
